US11261192B2, “Substituted 1,2-dihydro-3H-pyrazolo[3,4-D]pyrimidin-3-ones” (Recurium IP Holdings, LLC, priority 2018, dated 2022)

Test system: H23 cells
Test: H23 Cellular Proliferation Assay (CellTiter-Glo)
Format: cell-based
Conditions: Homo sapiens, NCI-H23, 96 h, 4 days, read-out: H23 CTG IC50
Experimental: H23 Cellular Proliferation Assay
Cells were treated with compounds diluted in DMSO and a 9 point 5-fold serial dilutions. Plates were placed in 37° C., 5% CO2 for to incubate for 4 days. Before they were developed by adding 100 μL of CellTiter-Glo reagent (Promega) to the assay plate, plates were shaken briefly for 2 mins and allowed to incubate at rt for 10 mins. The plates are read with a M5e plate reader according to CellTiter-Glo protocol. The GraphPad Prism software is used to get IC50 values.

Compound	IC50
C=CCn1c(=O)c2cnc(Nc3ccc(N4CCN(C)CC4)cc3)nc2n1-c1ccc2c(c1)[C@](O)(CC)CO2 (single isomer, unassigned) [Example 5A]	> 1 µM
C=CCn1c(=O)c2cnc(Nc3ccc(N4CCN(C)CC4)cc3)nc2n1-c1ccc2c(c1)[C@@](O)(CC)CO2 (single isomer, unassigned) [Example 5B]	0.1 to 1 µM
C=CCn1c(=O)c2cnc(Nc3ccc(N4CCN(C)CC4)cc3)nc2n1-c1ccc2c(n1)[C@](O)(C(F)(F)F)CO2 (single isomer, unassigned) [Example 6A]	> 1 µM
C=CCn1c(=O)c2cnc(Nc3ccc(N4CCN(C)CC4)cc3)nc2n1-c1ccc2c(n1)[C@@](O)(C(F)(F)F)CO2 (single isomer, unassigned) [Example 6B]	0.1 to 1 µM
C=CCn1c(=O)c2cnc(Nc3ccc(N4CCNCC4)c(C)c3)nc2n1-c1ccc2c(n1)[C@](O)(CC)CC2 (single isomer, unassigned) [Example 13A]	0.1 to 1 µM
C=CCn1c(=O)c2cnc(Nc3ccc(N4CCNCC4)c(C)c3)nc2n1-c1ccc2c(n1)[C@@](O)(CC)CC2 (single isomer, unassigned) [Example 13B]	< 0.1 µM
C=CCn1c(=O)c2cnc(Nc3ccc(N4CCN(C)CC4)cc3)nc2n1-c1ccc2c(n1)[C@](O)(C1CC1)CC2 (single isomer, unassigned) [Example 16A]	0.1 to 1 µM
C=CCn1c(=O)c2cnc(Nc3ccc(N4CCN(C)[C@@H](C)C4)cc3)nc2n1-c1ccc2c(n1)[C@@](C)(O)CC2 (single isomer, unassigned) [Example 17A]	0.1 to 1 µM
C=CCn1c(=O)c2cnc(Nc3ccc(N4CCN(C)[C@@H](C)C4)cc3)nc2n1-c1ccc2c(n1)[C@](C)(O)CC2 (single isomer, unassigned) [Example 17B]	0.1 to 1 µM
C=CCn1c(=O)c2cnc(Nc3ccc(N4CCN(C)[C@H](C)C4)cc3)nc2n1-c1ccc2c(n1)[C@@](C)(O)CC2 (single isomer, unassigned) [Example 18A]	0.1 to 1 µM
C=CCn1c(=O)c2cnc(Nc3ccc(N4CCN(C)[C@H](C)C4)cc3)nc2n1-c1ccc2c(n1)[C@](C)(O)CC2 (single isomer, unassigned) [Example 18B]	0.1 to 1 µM
C=CCn1c(=O)c2cnc(Nc3ccc(N4CCN(C)C[C@@H]4C)cc3)nc2n1-c1ccc2c(n1)[C@@](C)(O)CC2 (single isomer, unassigned) [Example 19A]	> 1 µM
C=CCn1c(=O)c2cnc(Nc3ccc(N4CCN(C)C[C@@H]4C)cc3)nc2n1-c1ccc2c(n1)[C@](C)(O)CC2 (single isomer, unassigned) [Example 19B]	0.1 to 1 µM
C=CCn1c(=O)c2cnc(Nc3ccc(N4CCN(C)C[C@H]4C)cc3)nc2n1-c1ccc2c(n1)[C@@](C)(O)CC2 (single isomer, unassigned) [Example 20A]	> 1 µM
C=CCn1c(=O)c2cnc(Nc3ccc(N4CCN(C)C[C@H]4C)cc3)nc2n1-c1ccc2c(n1)[C@](C)(O)CC2 (single isomer, unassigned) [Example 20B]	0.1 to 1 µM
C=CCn1c(=O)c2cnc(Nc3ccc(N4CCN(C)CC4)c(C)c3)nc2n1-c1ccc2c(c1)[C@@](C)(O)CC2 (single isomer, unassigned) [Example 23A]	0.1 to 1 µM
C=CCn1c(=O)c2cnc(Nc3ccc(N4CCN(C)CC4)c(C)c3)nc2n1-c1ccc2c(c1)[C@](C)(O)CC2 (single isomer, unassigned) [Example 23B]	< 0.1 µM
C=CCn1c(=O)c2cnc(Nc3ccc(N4CCN(C)CC4)cc3)nc2n1-c1cc(F)c2c(c1)[C@@](C)(O)CC2 (single isomer, unassigned) [Example 24A]	0.1 to 1 µM

Compound	IC50
C=CCn1c(=O)c2cnc(Nc3ccc(N4CCN(C)CC4)cc3)nc2n1-c1cc(F)c2c(c1)[C@](C)(O)CC2 (single isomer, unassigned) [Example 24B]	0.1 to 1 µM
C=CCn1c(=O)c2cnc(Nc3ccc(N4CCNCC4)cc3)nc2n1-c1ccc2c(n1)[C@@](C)(O)CCC2 (single isomer, unassigned) [Example 28A]	0.1 to 1 µM
C=CCn1c(=O)c2cnc(Nc3ccc(N4CCNCC4)cc3)nc2n1-c1ccc2c(n1)[C@](C)(O)CCC2 (single isomer, unassigned) [Example 28B]	0.1 to 1 µM
C=CCn1c(=O)c2cnc(Nc3ccc4c(c3)CNCC43CC3)nc2n1-c1ccc2c(n1)[C@@](C)(O)CCC2 (single isomer, unassigned) [Example 31A]	< 0.1 µM
C=CCn1c(=O)c2cnc(Nc3ccc4c(c3)CNCC43CC3)nc2n1-c1ccc2c(n1)[C@](C)(O)CCC2 (single isomer, unassigned) [Example 31B]	< 0.1 µM
C=CCn1c(=O)c2cnc(Nc3ccc(N4CCN(C)CC4)cc3)nc2n1-c1cc2c(cn1)CC[C@]2(C)O (single isomer, unassigned) [Example 37A]	> 1 µM
C=CCn1c(=O)c2cnc(Nc3ccc(N4CCN(C)CC4)cc3)nc2n1-c1cc2c(cn1)CC[C@@]2(C)O (single isomer, unassigned) [Example 37B]	> 1 µM
C=CCn1c(=O)c2cnc(Nc3ccc(N4CCN(C)CC4)cc3)nc2n1-c1ccc2c(n1)[C@](O)(C(C)(F)F)CC2 (single isomer, unassigned) [Example 38A]	> 1 µM
C=CCn1c(=O)c2cnc(Nc3ccc(N4CCN(C)CC4)cc3)nc2n1-c1ccc2c(n1)[C@@](O)(C(C)(F)F)CC2 (single isomer, unassigned) [Example 38B]	0.1 to 1 µM
C=CCn1c(=O)c2cnc(Nc3ccc4c(ccn4C4CCN(C)CC4)c3)nc2n1-c1ccc2c(n1)[C@](O)(CC)CC2 (single isomer, unassigned) [Example 39A]	0.1 to 1 µM
C=CCn1c(=O)c2cnc(Nc3ccc4c(ccn4C4CCN(C)CC4)c3)nc2n1-c1ccc2c(n1)[C@@](O)(CC)CC2 (single isomer, unassigned) [Example 39B]	0.1 to 1 µM
C=CCn1c(=O)c2cnc(Nc3ccc(C4=CCN(C)CC4)c(C)c3)nc2n1-c1ccc2c(n1)[C@](O)(CC)CC2 (single isomer, unassigned) [Example 40A]	0.1 to 1 µM
C=CCn1c(=O)c2cnc(Nc3ccc(C4=CCN(C)CC4)c(C)c3)nc2n1-c1ccc2c(n1)[C@@](O)(CC)CC2 (single isomer, unassigned) [Example 40B]	< 0.1 µM
C=CCn1c(=O)c2cnc(Nc3ccc(N4CCN(C)CC4)cc3)nc2n1-c1ccc2c(n1)[C@@](C)(NC(C)=O)CCC2 (single isomer, unassigned) [Example 41A]	> 1 µM
C=CCn1c(=O)c2cnc(Nc3ccc(N4CCN(C)CC4)cc3)nc2n1-c1ccc2c(n1)[C@](C)(NC(C)=O)CCC2 (single isomer, unassigned) [Example 41B]	> 1 µM
C=CCn1c(=O)c2cnc(Nc3ccc(N4CCN(C)CC4)cc3)nc2n1-c1cccc(C(C)(C)O)n1 [AZD1775, 2-allyl-1-(6-(2-hydroxypropan-2-yl)pyridin-2-yl)-6-(4-(4-methylpiperazin-1-yl)phenylamino)-1,2-dihydropyrazolo[3,4-d]pyrimidin-3-one, reference compound]	0.1 to 1 µM
C=CCn1c(=O)c2cnc(Nc3ccc(N4CCNCC4)cc3)nc2n1-c1ccc2c(n1)[C@@](O)(CC)CC2 [Example 14, (R)-2-allyl-1-(7-ethyl-7-hydroxy-6,7-dihydro-5H-cyclopenta[b]pyridin-2-yl)-6-((4-(piperazin-1-yl)phenyl)amino)-1,2-dihydro-3H-pyrazolo[3,4-d]pyrimidin-3-one]	0.1 to 1 µM
